Results taken from the supplement of paper PMC10307832.

Legend:
Assay in all cases: relative viability (nuclei count vs DMSO), 5 days (fraction); higher = more cells survive
Kobe2602 + Olaparib = compound: C1=CC(=CC=C1NC(=S)NNC2=C(C=C(C=C2[N+](=O)[O-])C(F)(F)F)[N+](=O)[O-])F [Kobe2602] + O=C(c1cc(Cc2n[nH]c(=O)c3ccccc23)ccc1F)N1CCN(C(=O)C2CC2)CC1 [Olaparib] (partner 8 µM)
Outline: (§1)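 Relative viability divides the nuclei count in treated wells by that in vehicle wells. Lung cancer cell lines were seeded in 1536-well plates, dosed by pin tool the next day, and fixed and stained after 5 days in one step with final 0.05% Triton X-100, 1% formaldehyde and 1 ug/ml Hoechst. Dosing was a single drug or a fixed anchor-drug dose plus five library-drug doses (not always all listed) in √10 steps, and values are medians of duplicate plates imaged at 4×.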

[1] = compound: COc1cc2nccc(Oc3ccc(NC(=O)C4(C(=O)Nc5ccc(F)cc5)CC4)cc3)c2cc1OC [Cabozantinib] + CS(=O)(=O)N1CCN(Cc2cc3nc(-c4cccc5[nH]ncc45)nc(N4CCOCC4)c3s2)CC1 [Pictilisib] (partner 1 µM)
Outline: as §1

Cabozantinib + Dasatinib = compound: COc1cc2nccc(Oc3ccc(NC(=O)C4(C(=O)Nc5ccc(F)cc5)CC4)cc3)c2cc1OC [Cabozantinib] + Cc1nc(Nc2ncc(C(=O)Nc3c(C)cccc3Cl)s2)cc(N2CCN(CCO)CC2)n1 [Dasatinib] (partner 0.075 µM)
Outline: as §1

Cabozantinib + AZD7762 = compound: COc1cc2nccc(Oc3ccc(NC(=O)C4(C(=O)Nc5ccc(F)cc5)CC4)cc3)c2cc1OC [Cabozantinib] + NC(=O)Nc1cc(-c2cccc(F)c2)sc1C(=O)N[C@H]1CCCNC1 [AZD7762] (partner 0.2 µM)
Outline: as §1

Row | Cell Line | relative viability (Kobe2602 + Olaparib; first compound 0.2 µM) | relative viability (Kobe2602 + Olaparib; first compound 0.6325 µM) | relative viability (Kobe2602 + Olaparib; first compound 2 µM) | relative viability (Kobe2602 + Olaparib; first compound 6.325 µM) | relative viability (Kobe2602 + Olaparib; first compound 20 µM) | relative viability ([1]; first compound 0.02 µM) | relative viability ([1]; first compound 0.06325 µM) | relative viability ([1]; first compound 0.2 µM) | relative viability ([1]; first compound 0.6325 µM) | relative viability ([1]; first compound 2 µM) | relative viability (Cabozantinib + Dasatinib; first compound 0.02 µM) | relative viability (Cabozantinib + Dasatinib; first compound 0.06325 µM) | relative viability (Cabozantinib + Dasatinib; first compound 0.2 µM) | relative viability (Cabozantinib + Dasatinib; first compound 0.6325 µM) | relative viability (Cabozantinib + Dasatinib; first compound 2 µM) | relative viability (Cabozantinib + AZD7762; first compound 0.02 µM) | relative viability (Cabozantinib + AZD7762; first compound 0.06325 µM) | relative viability (Cabozantinib + AZD7762; first compound 0.2 µM) | relative viability (Cabozantinib + AZD7762; first compound 0.6325 µM) | relative viability (Cabozantinib + AZD7762; first compound 2 µM)
1 | NCI-H2170 | 0.561 | 0.574 | 0.53 | 0.597 | 0.625 | 0.259 | 0.321 | 0.274 | 0.376 | 0.296 | 0.622 | 0.57 | 0.373 | 0.542 | 0.591 | 0.871 | 0.937 | 0.779 | 0.864 | 1.01
2 | NCI-H2347 | 0.603 | 0.548 | 0.559 | 0.53 | 0.607 | 0.893 | 0.726 | 0.897 | 0.497 | 0.592 | 0.3 | 0.283 | 0.321 |  | 0.296 | 0.748 | 0.889 | 0.668 | 0.378 | 0.444
3 | NCI-H2405 | 0.915 | 0.874 | 0.868 | 0.905 | 0.909 |  | 0.496 | 0.602 | 0.422 | 0.439 | 0.171 | 0.232 | 0.215 | 0.212 | 0.215 | 0.687 | 0.918 | 0.769 | 0.68 | 0.655
4 | NCI-H3122 | 0.551 | 0.602 | 0.621 | 0.56 | 0.619 | 0.512 | 0.622 | 0.579 | 0.77 | 0.769 | 0.714 | 0.941 | 0.836 | 0.78 | 0.83 | 1.04 | 1.05 | 1.03 | 0.941 | 1.03
5 | PC-3 [JPC-3] | 1.1 | 1.22 | 1.13 | 1.19 | 1.13 | 0.723 | 0.926 |  | 0.806 | 0.774 | 0.89 | 1.21 |  | 1.1 | 0.993 | 0.633 | 0.888 |  | 0.859 | 0.798
6 | PC-14 | 0.24 | 0.356 | 0.256 | 0.259 | 0.101 | 0.722 | 0.761 |  | 0.76 | 0.689 | 0.219 | 0.339 | 0.0309 | 0.246 | 0.195 | 0.323 | 0.415 |  | 0.406 | 0.354
7 | RERF-LC-KJ | 0.936 | 0.957 | 0.9 | 0.525 | 0.282 | 0.501 | 0.646 | 0.578 | 0.567 | 0.485 | 0.84 | 0.77 | 0.763 | 0.853 | 0.923 | 0.811 | 1.06 | 0.963 | 0.946 | 1.01
